Reference: patent US12157885B2, “Methods of screening using barcoded libraries” (President and Fellows of Harvard College, priority 2016, dated 2024)

System: library of barcoded yeast strains expressing toxic aggregation prone proteins, non-aggregation toxic proteins or benign control proteins
Test: Barcoded mixed pool growth competition of a yeast library under inducing conditions (galactose) with or without a small molecule, with barcodes quantified by next-generation sequencing
Assay type: cell-based
Conditions: for rescue of growth of strains expressing toxic aggregation prone proteins (barcode representation relative to no drug condition): difference >3 standard deviations vs no drug highlighted
Procedure: Several experiments were conducted in which all members of the library were mixed at equal amounts and the library was grown under non-inducing conditions (glucose) or in the presence of galactose (inducing condition) with or without a small molecule of interest. After overnight outgrowth, genomic DNA was extracted from each of the experimental conditions and barcodes were quantified.
A library of barcoded yeast and their associated genes of interest were subjected to growth under inducing conditions in the presence or absence of small molecules. In FIG. 5A, Lovastatin at 2 ug/ml was added to the outgrowth media. In FIG. 5B, Celestrol at 1 ug/ml was added to the outgrowth media. Growth in the presence of drug was normalized to the without drug condition and plotted relative to the no drug condition. […] “416” and “426” refers to the plasmid background used to express each of the genes tested.
For growth competition experiments, yeast strains each with a unique DNA barcode along with containing a plasmid encoding a control or toxic protein of interest were first grown overnight to saturation in SC-URA+glucose. The various barcoded lines were then mixed in defined ratios and passaged at a 1:1000 dilution into fresh SC-URA+glucose or SC-URA+galactose media. For experiments involving small molecules, yeast were diluted into SC-URA+galactose media containing a given small molecule of interest and allowed to grow for 36 hours before genomic DNA was extracted from the population of cells.
Yeast lysis was performed as previously described. See Lõoke, M., Kristjuhan, K. & Kristjuhan, A. Extraction of genomic DNA from yeasts for PCR-based applications. BioTechniques 50, 325-328 (2011). Briefly, 300-900 ul of overnight culture was spun down and resuspended in 300 ul of 200 mM LiAc, 1% SDS solution. Cells were then vortexed several times and incubated at 70° C. for 10-15 minutes. 900 ul of >95% ethanol was then added to the samples and they were inverted several times along with vortexing to mix the solution well. The samples were then spun at 15,000 g for 3 minutes and the supernatant was discarded. Pellets were washed 1× with 70% ethanol, spun at 15,000 g for 3 minutes and the supernatant was again removed. The pellet was then allowed to air dry for 5-10 minutes before adding in 100 ul of 10 mM Tris pH 8.5 and pipetting up and down to break up the pellet. Samples were then placed in a heating block set to 37° C. for 10 minutes, spun again at 15,000 g for 3 minutes and then the supernatant was collected and used in downstream DNA analysis.
Genomic DNA was extracted and barcoded using one of four internally barcoded forward primers, […] NNNN CACAG […]; […] NNNN GTGTT […]; […] NNNN TCTTG […]; […] NNNN AGCTC […]; in combination with the reverse primer, […]aacgccgccatccagtttaaacgag. Following PCR, the amplicons were purified and normalized using SequalPrep Normalization Plate (96) kit (Thermo Fisher). A second round of PCR was next performed using the Illumina Truseq adapters in order to allow individual samples to be identified during subsequent data analysis. The reads were aligned to a list of the 96 possible barcodes (see Ho, C. H. et al. A molecular barcoded yeast ORF library enables mode-of-action analysis of bioactive compounds. Nat. Biotechnol. 27, 369-377 (2009) using BWA. The depth of coverage for each barcode was calculated for each of the samples using a custom script and normalized to the total number of reads per sample.

| Compound | rescue of growth of strains expressing toxic aggregation prone proteins (barcode representation relative to no drug condition) (Lovastatin at 2 ug/ml in outgrowth media, FIG. 5A) | change in growth of control strains expressing benign proteins (eYFP, mCherry) (Lovastatin at 2 ug/ml, FIG. 5A) | rescue of strains expressing proteins that cause toxicity in yeast outside of protein aggregation (Lovastatin at 2 ug/ml, FIG. 5A) | rescue of growth of strains expressing toxic aggregation prone proteins (barcode representation relative to no drug condition) (Celestrol at 1 ug/ml in outgrowth media, FIG. 5B) | change in growth of control strains expressing benign proteins (eYFP, mCherry) (Celestrol at 1 ug/ml, FIG. 5B) | rescue of strains expressing proteins that cause toxicity in yeast outside of protein aggregation (Celestrol at 1 ug/ml, FIG. 5B) |
| --- | --- | --- | --- | --- | --- | --- |
| CC[C@H](C)C(=O)O[C@H]1C[C@@H](C)C=C2C=C[C@H](C)[C@H](CC[C@@H]3C[C@@H](O)CC(=O)O3)[C@H]21 [Lovastatin] | showed an ability to rescue the growth of some of the toxic aggregation prone proteins | nor did control strains expressing benign proteins such as eYFP and mCherry exhibit a significant change in their growth | none of the proteins that cause toxicity in yeast through alternative methods outside of protein aggregation showed significant rescue |  |  |  |
| CC1=C(O)C(=O)C=C2C1=CC=C1[C@@]2(C)CC[C@@]2(C)[C@@H]3C[C@](C)(C(=O)O)CC[C@]3(C)CC[C@]12C [Celestrol] |  |  |  | showed an ability to rescue the growth of some of the toxic aggregation prone proteins | nor did control strains expressing benign proteins such as eYFP and mCherry exhibit a significant change in their growth | none of the proteins that cause toxicity in yeast through alternative methods outside of protein aggregation showed significant rescue |
